Where a SMILES comes first, the peptide text is derived from it. Bridges are numbered along the chain shown (N, C = ends). [ ]: non-standard residue; d: D form. S5 = C=CCCC[C@](C)(N)C(=O)O
Assays:
neuronal SNAREs only = test: Single vesicle content mixing assay, neuronal SNAREs only (VAMP2 vesicles); format: biochemical; conditions: 10 μM peptide; raw count
Excerpt: (§1) For single vesicle content mixing assay, the lipid composition of the SV, SG, VAMP2, or VAMP8 vesicles was phosphatidylcholine (PC) (48%), phosphatidylethanolamine (PE) (20%), phosphatidylserine (PS) (12%), and cholesterol (20%); for both the neuronal and airway PM vesicles the lipid composition was Brain Total Lipid Extract supplemented 3.5 mol % PIP2, and 0.1 mol % biotinylated phosphatidylethanolamine (PE). The reconstitution method for neuronal PM and SV vesicles was described in detail previously (see Lai et al., 2017; Kyoung et al., 2011; and Lai et al., 2014). The same methods were used for airway PM, SG, VAMP2, and VAMP8 vesicles. […] A 3-5 fold excess of SNAP-25A or SNAP-23 (with respect to Stx1A or Stx3) and 3.5 mol % PIP2 were added to the protein-lipid mixture for neuronal or airway PM vesicles. […] For the preparation of SV, SG, VAMP2, or VAMP8 vesicles for single vesicle content mixing assay, 50 mM sulforhodamine B (Thermo Fisher Scientific) was added to the protein-lipid mixture. The vesicles subsequently formed during size exclusion chromatography using a Sepharose CL-4B column, packed under near constant pressure by gravity with a peristaltic pump (GE Healthcare) in a 5.5 ml column with a 5 ml bed volume that was equilibrated with buffer V (20 mM HEPES, pH 7.4, 90 mM NaCl) supplemented with 20 μM EGTA and 0.1% 2-mercaptoethanol. The eluent was subjected to dialysis into 21 of detergent-free buffer V supplemented with 20 μM EGTA, 0.1% 2-mercaptoethanol, 5 g of Bio-beads SM2 (Bio-Rad) and 0.8 g/L Chelex 100 resin (Bio-Rad). After 4 hours, the buffer was exchanged with 21 of fresh buffer V supplemented with 20 μM EGTA, 0.1% 2-mercaptoethanol and Bio-beads, and the dialysis continued for another 12 h (overnight). […] For ensemble lipid mixing assay, the reconstitution method is the same as that for the single vesicle content mixing assay, except that 50 mM sulforhodamine B was omitted for all the steps. Single vesicle content mixing experiments. All single vesicle fusion and single molecule experiments were performed on a prism-type total internal reflection fluorescence (TIRF) microscope using 532 nm (green) laser (CrystaLaser) excitation. Two observation channels were created by a 640 nm single-edge dichroic […]36, Shemrock): one channel was used for the fluorescence emission intensity of the content dyes and the other channel for that of the Cy5 dye that are part of the injected Ca^2+-solution. The two channels were recorded on two adjacent rectangular areas (45×90 m^2) of a charge-coupled device (CCD) camera (iXon+DV […], Andor Technology). The imaging data were recorded with the […] software developed by Taekjip Ha, Johns Hopkins University, Baltimore. Flow chambers were assembled by creating a “sandwich” consisting of a quartz slide and a glass coverslip that were both coated with polyethylene glycol (PEG) molecules consisting 0.1% (w/v) biotinylated-PEG except when stated otherwise, and using double-sided tape to create up to five flow-chambers. The single vesicle content mixing assay described in Lai et al. (2014) was used to monitor vesicle-vesicle association, Ca^2+-independent, and Ca^2+-triggered fusion. The surface of the quartz slides was passivated by coating the surface with polyethylene glycol (PEG) molecules which alleviated non-specific binding of vesicles. […]

airway SNAREs only = target: T1, airway SNAREs only (Homo sapiens, UniProt O00161+Q13277+Q9BV40, C112S/C79S/C80S/C83S/C85S/C87S); test: Single vesicle content mixing assay, airway SNAREs only (VAMP8 vesicles); format: biochemical; conditions: 10 μM peptide; raw count
T1 sequence (Q9BV40 1-100): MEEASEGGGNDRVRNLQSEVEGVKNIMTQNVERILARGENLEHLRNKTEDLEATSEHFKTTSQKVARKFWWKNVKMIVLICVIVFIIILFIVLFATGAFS
T1 sequence (Q13277 1-289): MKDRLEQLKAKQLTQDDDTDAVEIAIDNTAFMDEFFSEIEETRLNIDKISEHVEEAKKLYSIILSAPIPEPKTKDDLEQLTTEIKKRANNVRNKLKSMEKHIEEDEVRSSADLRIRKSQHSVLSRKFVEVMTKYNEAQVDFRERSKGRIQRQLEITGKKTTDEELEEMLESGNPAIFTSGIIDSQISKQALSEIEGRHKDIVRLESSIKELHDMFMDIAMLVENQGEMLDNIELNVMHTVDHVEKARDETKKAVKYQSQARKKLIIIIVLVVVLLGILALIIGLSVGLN
T1 sequence (O00161 1-211 C79S/C80S/C83S/C85S/C87S/C112S): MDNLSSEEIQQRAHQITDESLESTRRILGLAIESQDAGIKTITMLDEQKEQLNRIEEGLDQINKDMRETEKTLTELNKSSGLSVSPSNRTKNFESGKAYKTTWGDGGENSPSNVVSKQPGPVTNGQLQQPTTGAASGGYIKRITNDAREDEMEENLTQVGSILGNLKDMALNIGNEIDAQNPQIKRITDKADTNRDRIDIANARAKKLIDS
Excerpt: as §1

Compound | Ca2+ independent fusion events (neuronal SNAREs only) | Ca2+ independent fusion events (airway SNAREs only)
Ac-SKD(S5)GIR(S5)LV(S5)LDE(S5)GEQL-amide (Ac-SKD[S5]GIR[S5]LV[S5]LDE[S5]GEQL-NH2; staple 11-15, 4-8; SMILES CC[C@H](C)[C@@H]1NC(=O)CNC(=O)[C@@](C)(NC(=O)[C@H](CC(=O)O)NC(=O)[C@H](CCCCN)NC(=O)[C@H](CO)NC(C)=O)CCCC=CCCC[C@@](C)(C(=O)N[C@@H](CC(C)C)C(=O)N[C@H](C(=O)N[C@@]2(C)CCCC=CCCC[C@@](C)(C(=O)NCC(=O)N[C@@H](CCC(=O)O)C(=O)N[C@@H](CCC(N)=O)C(=O)N[C@@H](CC(C)C)C(N)=O)NC(=O)[C@H](CCC(=O)O)NC(=O)[C@H](CC(=O)O)NC(=O)[C@H](CC(C)C)NC2=O)C(C)C)NC(=O)[C@H](CCCNC(=N)N)NC1=O) [SP10] | 341 | 18
Ac-SKD(S5)GIR(S5)LVMLDE(S5)GEQ(S5)DR-amide (Ac-SKD[S5]GIR[S5]LVMLDE[S5]GEQ[S5]DR-NH2; staple 15-19, 4-8; SMILES CC[C@H](C)[C@@H]1NC(=O)CNC(=O)[C@@](C)(NC(=O)[C@H](CC(=O)O)NC(=O)[C@H](CCCCN)NC(=O)[C@H](CO)NC(C)=O)CCCC=CCCC[C@@](C)(C(=O)N[C@@H](CC(C)C)C(=O)N[C@H](C(=O)N[C@@H](CCSC)C(=O)N[C@@H](CC(C)C)C(=O)N[C@@H](CC(=O)O)C(=O)N[C@@H](CCC(=O)O)C(=O)N[C@@]2(C)CCCC=CCCC[C@@](C)(C(=O)N[C@@H](CC(=O)O)C(=O)N[C@@H](CCCNC(=N)N)C(N)=O)NC(=O)[C@H](CCC(N)=O)NC(=O)[C@H](CCC(=O)O)NC(=O)CNC2=O)C(C)C)NC(=O)[C@H](CCCNC(=N)N)NC1=O) [SP1] | 245 | 26
CC[C@H](C)[C@H](NC(=O)[C@]1(C)CCCC=CCCC[C@](C)(NC(=O)[C@H](CCC(=O)O)NC(=O)[C@H](CCC(=O)O)NC(C)=O)C(=O)N[C@@H](CCCCN)C(=O)N[C@@H](CC(=O)O)C(=O)N[C@@H](C)C(=O)N1)C(=O)N[C@@H](CCCNC(=N)N)C(=O)N[C@@]1(C)CCCC=CCCC[C@@](C)(C(=O)N[C@@H](CC(=O)O)C(=O)N[C@@H](CCC(=O)O)C(=O)N[C@@H](CCC(N)=O)C(=O)N[C@@H](CS)C(N)=O)NC(=O)[C@H](CCSC)NC(=O)[C@H](C(C)C)NC(=O)[C@H](CC(C)C)NC1=O [SP9, Ac-EE(S5)KDA(S5)IR(S5)LVM(S5)DEQC-amide] (Ac-EE[S5]KDA[S5]IR[S5]LVM[S5]DEQC-NH2; staple 3-7, 10-14) | 336 | 22
Ac-SKDA(S5)IRT(S5)VM(S5)DEQ(S5)EQL-amide (Ac-SKDA[S5]IRT[S5]VM[S5]DEQ[S5]EQL-NH2; staple 12-16, 5-9; SMILES CC[C@H](C)[C@@H]1NC(=O)[C@@](C)(NC(=O)[C@H](C)NC(=O)[C@H](CC(=O)O)NC(=O)[C@H](CCCCN)NC(=O)[C@H](CO)NC(C)=O)CCCC=CCCC[C@@](C)(C(=O)N[C@H](C(=O)N[C@@H](CCSC)C(=O)N[C@@]2(C)CCCC=CCCC[C@@](C)(C(=O)N[C@@H](CCC(=O)O)C(=O)N[C@@H](CCC(N)=O)C(=O)N[C@@H](CC(C)C)C(N)=O)NC(=O)[C@H](CCC(N)=O)NC(=O)[C@H](CCC(=O)O)NC(=O)[C@H](CC(=O)O)NC2=O)C(C)C)NC(=O)[C@H]([C@@H](C)O)NC(=O)[C@H](CCCNC(=N)N)NC1=O) [SP4] | 356 | 16
EESKDAGIRTLVMLDEQGEQLD [Peptide P0, non-stapled SNAP-25A fragment used as a control, reference compound] | 104 | 38

Source: patent US20250163122A1, “COMPOSITIONS AND METHODS FOR TREATING AIRWAY MUCUS DYSFUNCTION” (BOARD OF REGENTS, THE UNIVERSITY OF TEXAS SYSTEM, priority 2022, published 2025)
